# Laboratory results taken from US4581354A, “3-arylcarbonyl- and 3-cycloalkylcarbonyl-1-aminoalkyl-1H-indoles, compositions and use” (Sterling Drug Inc., priority 1985, dated 1986).
# Structures can show the parent of a compound that is named as a salt. Where two headings read alike, the source gives them in different places.
# What was measured:
# [1] = system: bradykinin; assay: anti-bradykinin test (BRDK); type: in vivo; conditions: for inhibition in vivo at 200 mg/kg: 200 mg./kg. oral; for inhibition in vivo at 300 mg/kg: 300 mg./kg. oral; for inhibition in vivo at 50 mg/kg: 50 mg./kg. oral; for inhibition in vivo at 30 mg/kg: 30 mg./kg. oral
# Text: (§1) The test procedures used to determine the analgesic activities of the compounds have been described in detail in the prior art and are as follows: The acetylcholine-induced abdominal constriction test, which is a primary analgesic screening test designed to measure the ability of a test agent to suppress acetylcholine-induced abdominal constriction in mice, described by Collier et al., Brit. J. Pharmacol. Chemotherap. 32, 295 (1968); a modification of the anti-bradykinin test, which is also a primary analgesic screening procedure, described by Berkowitz et al., J. Pharmacol. Exptl. Therap. 177, 500-508 (1971), Blane et al., J. Pharm. Pharmacol. 19, 367-373 (1967), Botha et al., Eur. J. Pharmacol. 6, 312-321 (1969) and Deffenu et al., J. Pharm. Pharmacol. 18, 135 (1966); and the rat paw flexion test, described by Kuzuna et al., Chem. Pharm. Bull., 23, 1184-1191 (1975), Winter et al., J. Pharm. Exptl. Therap., 211, 678-685 (1979) and Capetola et al., J. Pharm. Exptl. Therap. 214, 16-23 (1980).
# (§2) Unless noted otherwise, all data were obtained on oral administration and are expressed either as the ED50 or as the percent inhibition at a given dose level (thus 30/100 or 30% inhibition at […].)
# (§3) In some instances, the compounds were retested two or more times, and ED50 values were calculated for each series of repeat tests. In such instances, each of the ED50 values so-obtained is given in a series of values, thus 6, 28, 30, 43 in the case of the species of Example 1AW in the acetylcholine-induced abdominal constriction test.
# [2] = system: acetylcholine-induced abdominal constriction; assay: animal or person; type: in vivo, mice; conditions: Mus musculus; for ED50: read-out: Ach ED50; for inhibition in vivo at 3 mg/kg: 3 mg./kg. i.v.; for inhibition in vivo at 10 mg/kg: 10 mg./kg. i.v.; for inhibition in vivo at 300 mg/kg: 300 mg./kg. oral; for inhibition in vivo at 1 mg/kg: 1 mg./kg. i.v.
# [3] = system: rat paw flexion; assay: rat paw flexion test (P.F.); type: in vivo; conditions: for inhibition in vivo at 30 mg/kg: 30 mg./kg. oral; for inhibition in vivo at 100 mg/kg: 100 mg./kg. oral; for ED50: oral; for inhibition in vivo at 10 mg/kg: 10 mg./kg. oral; for inhibition in vivo at 300 mg/kg: 300 mg./kg. oral
# Text: as §1, §2, §3
# [4] = read-out: BRDK percent inhibition
# [5] = iv, read-out: Ach percent inhibition
# [6] = po, read-out: P.F. percent inhibition
# [7] = po, read-out: Ach percent inhibition
# [8] = 100 mg./kg. oral, read-out: BRDK percent inhibition
smiles,measurement,setting,value
"COc1ccc(C(=O)c2cn(CCN3CCOCC3)c3ccccc23)cc1.CS(=O)(=O)O.O [Example 1A, 3-(4-methoxybenzoyl)-1-[2-(4-morpholinyl)ethyl]-1H-indole methanesulfonate monohydrate]",ED50,[1]; po,56 mg/kg
same,ED50,[2]; po,73 mg/kg
CCc1ccc(C(=O)c2c(C)n(CCN3CCOCC3)c3ccccc23)cc1 [Example 1AC],inhibition in vivo at 200 mg/kg,[1]; [4],0%
same,inhibition in vivo at 1.77 mg/kg,"[2]; iv, 1.77 mg./kg. i.v., read-out: Ach percent inhibition",10%
same,inhibition in vivo at 2.2 mg/kg,"[2]; iv, 2.2 mg./kg. i.v., read-out: Ach percent inhibition",10%
same,inhibition in vivo at 3 mg/kg,[2]; [5],80%
same,inhibition in vivo at 10 mg/kg,[2]; [5],100%
same,ED50,[2]; po,30 mg/kg
same,inhibition in vivo at 30 mg/kg,[3]; [6],43%
same,inhibition in vivo at 50 mg/kg,"[3]; po, 50 mg./kg. oral, read-out: P.F. percent inhibition",57%
same,inhibition in vivo at 100 mg/kg,[3]; [6],75%
Cc1ccc(C(=O)c2c(C)n(CCN3CCOCC3)c3ccccc23)cc1 [Example 1AE],inhibition in vivo at 300 mg/kg,[1]; [4],20%
same,ED50,[2]; po,29 mg/kg
same,ED50,[3],66.2 mg/kg
Cc1c(C(=O)c2ccccc2)c2ccccc2n1CCN1CCOCC1 [Example 1AO],ED50,[1]; po,111 mg/kg
same,ED50,[2]; po,28 mg/kg
same,inhibition in vivo at 100 mg/kg,[3]; [6],75%
O=C(c1ccccc1)c1cn(CCN2CCOCC2)c2ccccc12 [Example 1AP],inhibition in vivo at 50 mg/kg,[1]; [4],0%
same,inhibition in vivo at 200 mg/kg,[1]; [4],33%
same,inhibition in vivo at 400 mg/kg,"[1]; 400 mg./kg. oral, read-out: BRDK percent inhibition",60%
same,ED50,[2]; po,42 mg/kg
Cc1c(C(=O)c2ccc(Cl)cc2)c2ccccc2n1CCN1CCOCC1 [Example 1AQ],ED50,[2]; iv,17 mg/kg
same,inhibition in vivo at 300 mg/kg,[2]; [7],53%
same,inhibition in vivo at 10 mg/kg,[3]; [6],0%
same,inhibition in vivo at 30 mg/kg,[3]; [6],12%
same,inhibition in vivo at 100 mg/kg,[3]; [6],12%
Cc1c(C(=O)c2cccs2)c2ccccc2n1CCN1CCOCC1 [Example 1AT],inhibition in vivo at 50 mg/kg,[1]; [4],0%
same,inhibition in vivo at 200 mg/kg,[1]; [4],0%
same,ED50,[2]; po,30 mg/kg
COc1ccc2c(C(=O)c3ccc(Cl)cc3)c(C)n(CCN3CCOCC3)c2c1 [Example 1AU],inhibition in vivo at 50 mg/kg,[1]; [4],0%
same,ED50,[2]; po,42 mg/kg
COc1ccc2c(C(=O)c3cccs3)c(C)n(CCN3CCOCC3)c2c1 [Example 1AV],inhibition in vivo at 50 mg/kg,[1]; [4],0%
same,ED50,[2]; po,38 mg/kg
Cc1c(C(=O)c2ccccc2)c2ccccc2n1C(C)CN1CCOCC1 (centres unmarked) [Example 1AW],ED50,[1]; po,229 mg/kg
same,ED50,[3],26 mg/kg
Cc1c(C(=O)c2ccccc2)c2ccccc2n1CC(C)N1CCOCC1 (centres unmarked) [Example 1AX],inhibition in vivo at 212 mg/kg,"[1]; 212 mg./kg. oral, read-out: BRDK percent inhibition",0%
same,ED50,[2]; po,45 mg/kg
CC(CN1CCOCC1)n1cc(C(=O)c2ccccc2)c2ccccc21 (centres unmarked) [Example 1AY],ED50,[1]; po,141 mg/kg
same,ED50,[2]; iv,8.5 mg/kg
same,inhibition in vivo at 30 mg/kg,[3]; [6],0%
same,inhibition in vivo at 100 mg/kg,[3]; [6],0%
same,inhibition in vivo at 300 mg/kg,[3]; [6],20%
"COc1ccc(C(=O)c2c(C)n(CCN3CCOCC3)c3ccccc23)cc1 [Example 1B, 2-methyl-3-(4-methoxybenzoyl)-1-[2-(4-morpholinyl)ethyl]-1H-indole]",ED50,[1]; iv,8.1 mg/kg
same,ED50,[2]; iv,6.7 mg/kg
COc1ccc(C(=O)c2c(C)n(CCN3CCOCC3)c3ccccc23)c2ccccc12 [Example 1BI],inhibition in vivo at 6 mg/kg,"[1]; 6 mg./kg. oral, read-out: BRDK percent inhibition",0%
same,ED50,[2]; iv,0.69 mg/kg
same,inhibition in vivo at 300 mg/kg,[2]; [7],13%
same,inhibition in vivo at 100 mg/kg,"[2]; sc, 100 mg./kg. s.c., read-out: Ach percent inhibition",27%
CSc1ccc(C(=O)c2c(C)n(CCN3CCOCC3)c3ccccc23)cc1 [Example 1D],inhibition in vivo at 100 mg/kg,[1]; [8],0%
same,ED50,[2]; iv,5.1 mg/kg
same,ED50,[2]; sc,49 mg/kg
same,ED50,[3],64 mg/kg
Cc1c(C(=O)c2ccc([S+](C)[O-])cc2)c2ccccc2n1CCN1CCOCC1 (centres unmarked) [Example 1F],inhibition in vivo at 200 mg/kg,[1]; [4],0%
same,ED50,[2]; iv,13 mg/kg
same,ED50,[2]; po,20 mg/kg
same,inhibition in vivo at 100 mg/kg,[3]; [6],88%
Cc1c(C(=O)c2cc3ccccc3o2)c2ccccc2n1CCN1CCOCC1 [Example 1S],ED50,[1]; po,162 mg/kg
same,inhibition in vivo at 1 mg/kg,[2]; [5],10%
same,inhibition in vivo at 3 mg/kg,[2]; [5],20%
same,inhibition in vivo at 10 mg/kg,[2]; [5],100%
same,ED50,[2]; po,40 mg/kg
Cc1c(C(=O)c2ccccc2F)c2ccccc2n1C(C)CN1CCOCC1 (centres unmarked) [Example 2C],inhibition in vivo at 30 mg/kg,[1]; [4],0%
same,inhibition in vivo at 300 mg/kg,[1]; [4],60%
same,ED50,[2]; iv,3.3 mg/kg
same,ED50,[2]; po,19 mg/kg
COc1ccc(C(=O)c2c(C)n(C(C)CN3CCOCC3)c3ccccc23)cc1 (centres unmarked) [Example 2I],ED50,[1]; po,132 mg/kg
same,ED50,[2]; iv,2.6 mg/kg
same,ED50,[2]; po,28 mg/kg
same,ED50,[2]; sc,18 mg/kg
same,inhibition in vivo at 100 mg/kg,[3]; [6],62%
"COc1ccc(C(=O)c2c(C)n(CCN3CCCC(O)C3)c3ccccc23)cc1 (centres unmarked) [Example 3B, 1-[2-(3-hydroxy-1-piperidinyl)ethyl]-2-methyl-3-(4-methoxybenzoyl)-1H-indole]",ED50,[2]; iv,3 mg/kg
same,ED50,[2]; po,26.5 mg/kg
same,ED50,[2]; sc,10 mg/kg
same,inhibition in vivo at 30 mg/kg,[3]; [6],50%
same,inhibition in vivo at 100 mg/kg,[3]; [6],86%
same,inhibition in vivo at 300 mg/kg,[3]; [6],86%
"Cc1c(C(=O)c2cccc(N)c2)c2ccccc2n1CCN1CCOCC1 [Example 4A, 2-methyl-3-(3-aminobenzoyl)-1-[2-(4-morpholinyl)ethyl]-1H-indole]",ED50,[1]; po,53 mg/kg
same,ED50,[2]; po,16 mg/kg
"Cc1c(C(=O)c2ccc(N)cc2)c2ccccc2n1CCN1CCOCC1 [Example 4B, 2-methyl-3-(4-aminobenzoyl)-1-[2-(4-morpholinyl)ethyl]-1H-indole]",ED50,[1]; po,38 mg/kg
same,ED50,[2]; iv,6 mg/kg
same,ED50,[2]; po,24 mg/kg
same,ED50,[3],27.6 mg/kg
"CC(=O)Nc1ccc(C(=O)c2c(C)n(CCN3CCOCC3)c3ccccc23)cc1 [Example 5A, 2-methyl-3-(4-acetylaminobenzoyl)-1-[2-(4-morpholinyl)ethyl]-1H-indole]",inhibition in vivo at 300 mg/kg,[1]; [4],0%
same,inhibition in vivo at 1 mg/kg,[2]; [5],20%
same,inhibition in vivo at 3 mg/kg,[2]; [5],29%
same,inhibition in vivo at 10 mg/kg,[2]; [5],30%
same,ED50,[2]; po,31 mg/kg
CC(=O)Nc1cccc(C(=O)c2c(C)n(CCN3CCOCC3)c3ccccc23)c1 [Example 5B],ED50,[1]; po,61 mg/kg
same,ED50,[2]; po,25 mg/kg
same,inhibition in vivo at 10 mg/kg,[3]; [6],0%
same,inhibition in vivo at 30 mg/kg,[3]; [6],12%
same,inhibition in vivo at 100 mg/kg,[3]; [6],12%
"Cc1c(C(=O)c2ccc(NC(=O)C(F)(F)F)cc2)c2ccccc2n1CCN1CCOCC1 [Example 5C, 2-methyl-3-[4-(N-trifluoroacetylamino)benzoyl]-1-[2-(4-morpholinyl)ethyl]-1H-indole]",inhibition in vivo at 30 mg/kg,[1]; [4],20%
same,inhibition in vivo at 100 mg/kg,[1]; [8],60%
same,inhibition in vivo at 300 mg/kg,[1]; [4],60%
same,ED50,[2]; po,19 mg/kg
Cc1c(C(=O)c2ccc(NC(=O)c3ccccc3)cc2)c2ccccc2n1CCN1CCOCC1 [Example 5D],inhibition in vivo at 200 mg/kg,[1]; [4],20%
same,inhibition in vivo at 3 mg/kg,[2]; [5],57%
same,ED50,[2]; iv,29.1 mg/kg
same,ED50,[2]; po,84 mg/kg
"Cc1c(C(=O)c2ccc(O)cc2)c2ccccc2n1CCN1CCOCC1.Cl [Example 6, 2-methyl-3-(4-hydroxybenzoyl)-1-[2-(4-morpholinyl)ethyl]-1H-indole hydrochloride]",inhibition in vivo at 100 mg/kg,[1]; [8],0%
same,inhibition in vivo at 300 mg/kg,[1]; [4],0%
same,inhibition in vivo at 10 mg/kg,[2]; [5],0%
same,inhibition in vivo at 30 mg/kg,"[2]; iv, 30 mg./kg. i.v., read-out: Ach percent inhibition",0%
same,ED50,[2]; po,83 mg/kg
same,inhibition in vivo at 30 mg/kg,"[2]; sc, 30 mg./kg. s.c., read-out: Ach percent inhibition",13%
"Cc1c(C(=O)c2ccc(CN)cc2)c2ccccc2n1CCN1CCOCC1.Cl.Cl [Example 7, 2-methyl-3-(4-aminomethylbenzoyl)-1-[2-(4-morpholinyl)ethyl]-1H-indole dihydrochloride]",inhibition in vivo at 300 mg/kg,[1]; [4],0%
same,ED50,[2]; po,40 mg/kg
"CNc1ccc(C(=O)c2c(C)n(CCN3CCOCC3)c3ccccc23)cc1 [Example 8A, 2-methyl-3-(4-methylaminobenzoyl)-1-[2-(4-morpholinyl)-ethyl]-1H-indole dihydrochloride hemihydrate]",ED50,[2]; po,32 mg/kg
same,inhibition in vivo at 30 mg/kg,[3]; [6],62%
"Cc1c(C(=O)c2ccc(CNC(=N)N)cc2)c2ccccc2n1CCN1CCOCC1 [Example 17, 2-methyl-3-(4-guanidinylmethylbenzoyl)-1-[2-(4-morpholinyl)ethyl]-1H-indole sulfate (2:1)]",inhibition in vivo at 100 mg/kg,"[1]; sc, 100 mg./kg. s.c., read-out: BRDK percent inhibition",33%
same,inhibition in vivo at 30 mg/kg,"[2]; po, 30 mg./kg. oral, read-out: Ach percent inhibition",7%
same,ED50,[2]; sc,6.6 mg/kg
